Measured values as given in patent publication US11173151B2, “Substituted triazole derivatives and uses thereof” (BAYER AKTIENGESELLSCHAFT, priority 2017, dated 2021).

Key:
[1] = biological target: T1, human V1a receptor (Homo sapiens, UniProt P37288); test: Cellular in vitro assay for determining vasopressin receptor activity, V1a receptor cell line (CHO, aequorin luminescence); format: cell-based; settings: for IC50: CHO cell line transfected with human V1a receptor, [Arg]-vasopressin at EC50 concentration, read-out: IC50 hV1a; for ratio IC50 hV2/hV1a: selectivity ratio IC50 hV2 / IC50 hV1a
T1 construct: expressed in transfected cells; host or cells: CHO K1 (ATCC), also stably transfected with a modified aequorin
In short: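 Antagonism is measured in stable CHO K1 transfectants coexpressing the Gαq-coupled receptor and a calcium-sensitive aequorin photoprotein. Agonist challenge uses [Arg]-vasopressin at EC50 after a 10-minute compound exposure; IC50 values come from the luminescence signal.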

[2] = biological target: T2, human V2 receptor (Homo sapiens, UniProt P30518); test: Cellular in vitro assay for determining vasopressin receptor activity, V2 receptor cell line (CHO, CRE-luciferase); format: cell-based; settings: CHO cell line transfected with human V2 receptor; [Arg8]-vasopressin at EC50 concentration, 3 hours; read-out: IC50 hV2
T2 construct: expressed in transfected cells; host or cells: CHO K1 (ATCC) expressing firefly luciferase under a CRE-responsive promoter
T2 sequence (P30518 whole entry): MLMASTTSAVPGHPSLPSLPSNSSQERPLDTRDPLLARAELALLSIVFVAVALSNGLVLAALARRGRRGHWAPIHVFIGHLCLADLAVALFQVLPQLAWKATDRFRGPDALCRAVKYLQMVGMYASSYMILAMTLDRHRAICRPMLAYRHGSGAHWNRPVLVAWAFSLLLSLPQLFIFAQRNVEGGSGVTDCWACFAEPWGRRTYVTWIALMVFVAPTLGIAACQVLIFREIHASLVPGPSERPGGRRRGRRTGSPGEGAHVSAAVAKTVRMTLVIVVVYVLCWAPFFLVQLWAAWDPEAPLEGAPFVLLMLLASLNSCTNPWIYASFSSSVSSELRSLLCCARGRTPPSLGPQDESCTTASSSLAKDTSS

T1 sequence (P37288 whole entry): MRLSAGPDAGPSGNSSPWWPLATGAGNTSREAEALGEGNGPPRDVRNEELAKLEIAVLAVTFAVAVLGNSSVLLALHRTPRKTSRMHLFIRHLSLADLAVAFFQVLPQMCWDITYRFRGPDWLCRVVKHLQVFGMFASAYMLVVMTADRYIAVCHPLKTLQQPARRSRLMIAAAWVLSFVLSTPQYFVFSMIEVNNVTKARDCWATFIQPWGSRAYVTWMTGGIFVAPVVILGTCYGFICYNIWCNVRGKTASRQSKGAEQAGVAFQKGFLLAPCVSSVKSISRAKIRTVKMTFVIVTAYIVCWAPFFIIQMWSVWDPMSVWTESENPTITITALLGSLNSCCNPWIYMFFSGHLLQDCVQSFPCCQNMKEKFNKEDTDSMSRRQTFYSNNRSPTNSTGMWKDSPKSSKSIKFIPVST

Structure (SMILES) | IC50 [1] [µM] | ratio IC50 hV2/hV1a [1] | IC50 [2] [µM]
Cc1nonc1CC(=O)Nc1ncccc1-n1cnc(Cn2nc(-c3ccc(Cl)cc3)n(C[C@H](O)C(F)(F)F)c2=O)n1 [Example 138] | 0.0385 | 61.0 | 2.35
CCc1cc(C(=O)Nc2ncccc2-n2cnc(Cn3nc(-c4ccc(Cl)cc4)n(C[C@H](O)C(F)(F)F)c3=O)n2)on1 [Example 140] | 0.0335 | 30.0 | 1.01
O=C(CC1CCCO1)Nc1ncccc1-n1cnc(Cn2nc(-c3ccc(Cl)cc3)n(C[C@H](O)C(F)(F)F)c2=O)n1 (some centres unmarked) [Example 141] | 0.032 | 33.3 | 1.06
CC1=NOC(C)(C(=O)Nc2ncccc2-n2cnc(Cn3nc(-c4ccc(Cl)cc4)n(C[C@H](O)C(F)(F)F)c3=O)n2)C1 (some centres unmarked) [Example 142] | 0.1 | 24.0 | 2.4
C=CC(C)C(=O)Nc1ncccc1-n1cnc(Cn2nc(-c3ccc(Cl)cc3)n(C[C@H](O)C(F)(F)F)c2=O)n1 (some centres unmarked) [Example 144] | 0.185 | 10.3 | 1.9
CC(C)(O)C(=O)Nc1ncccc1-n1cnc(Cn2nc(-c3ccc(Cl)cc3)n(C[C@H](O)C(F)(F)F)c2=O)n1 [Example 145] | 0.125 | 8.1 | 1.01
CCCC(=O)Nc1ncccc1-n1cnc(Cn2nc(-c3ccc(Cl)cc3)n(C[C@H](O)C(F)(F)F)c2=O)n1 [Example 146] | 0.056 | 9.9 | 0.555
CCC(=O)Nc1ncccc1-n1cnc(Cn2nc(-c3ccc(Cl)cc3)n(C[C@H](O)C(F)(F)F)c2=O)n1 [Example 147] | 0.305 | 3.1 | 0.94
O=C(CC1CCCC1)Nc1ncccc1-n1cnc(Cn2nc(-c3ccc(Cl)cc3)n(C[C@H](O)C(F)(F)F)c2=O)n1 [Example 150] | 0.0545 | 44.0 | 2.4
CC(C)C(=O)Nc1ncccc1-n1cnc(Cn2nc(-c3ccc(Cl)cc3)n(C[C@H](O)C(F)(F)F)c2=O)n1 [Example 151] | 0.098 | 6.8 | 0.665
C=CCC(=O)Nc1ncccc1-n1cnc(Cn2nc(-c3ccc(Cl)cc3)n(C[C@H](O)C(F)(F)F)c2=O)n1 [Example 152] | 0.065 | 20.8 | 1.35
N#Cc1cccc(C(=O)Nc2ncccc2-n2cnc(Cn3nc(-c4ccc(Cl)cc4)n(C[C@H](O)C(F)(F)F)c3=O)n2)c1 [Example 153] | 0.41 | 42.2 | 17.3
CC(C(=O)Nc1ncccc1-n1cnc(Cn2nc(-c3ccc(Cl)cc3)n(C[C@H](O)C(F)(F)F)c2=O)n1)n1cncn1 (some centres unmarked) [Example 155] | 0.039 | 50.0 | 1.95
O=C(Nc1ncccc1-n1cnc(Cn2nc(-c3ccc(Cl)cc3)n(C[C@H](O)C(F)(F)F)c2=O)n1)C1CCCCCC1 [Example 156] | 0.066 | 20.5 | 1.35
O=C(Nc1ncccc1-n1cnc(Cn2nc(-c3ccc(Cl)cc3)n(C[C@H](O)C(F)(F)F)c2=O)n1)C1CCCCC1 [Example 159] | 0.0525 | 35.2 | 1.85
Cc1cccc(C(=O)Nc2ncccc2-n2cnc(Cn3nc(-c4ccc(Cl)cc4)n(C[C@H](O)C(F)(F)F)c3=O)n2)c1 [Example 162] | 0.3 | 24.0 | 7.2
Cc1cn(CC(=O)Nc2ncccc2-n2cnc(Cn3nc(-c4ccc(Cl)cc4)n(C[C@H](O)C(F)(F)F)c3=O)n2)nn1 [Example 164] | 0.66 | 2.0 | 1.3
O=C(CC1CCCCO1)Nc1ncccc1-n1cnc(Cn2nc(-c3ccc(Cl)cc3)n(C[C@H](O)C(F)(F)F)c2=O)n1 (some centres unmarked) [Example 165] | 0.066 | 9.6 | 0.635
O=C(Nc1ncccc1-n1cnc(Cn2nc(-c3ccc(Cl)cc3)n(C[C@H](O)C(F)(F)F)c2=O)n1)C1CCCCO1 (some centres unmarked) [Example 166] | 0.039 | 51.3 | 2
O=C1CN(C(=O)c2ccccc2-n2cnc(Cn3nc(-c4ccc(Cl)cc4)n(C[C@H](O)C(F)(F)F)c3=O)n2)CCN1 [Example 171, 4-{2-[3-({3-(4-Chlorophenyl)-5-oxo-4-[(2S)-3,3,3-trifluoro-2-hydroxypropyl]-4,5-dihydro-1H-1,2,4-triazol-1-yl}methyl)-1H-1,2,4-triazol-1-yl]benzoyl}piperazin-2-one] | 0.139 | 52.8 | 7.35

Stronger by IC50 [1], values ahead:

IC50 [1] [µM] | ratio IC50 hV2/hV1a [1] | IC50 [2] [µM] | Structure (SMILES)
0.0205 | 22.7 | 0.465 | CCc1cc(C(=O)Nc2ncccc2-n2cnc(Cn3nc(-c4ccc(Cl)cc4)n(C[C@H](O)C(F)(F)F)c3=O)n2)no1 [Example 139]
0.015 | 74.7 | 1.12 | O=C(Nc1ncccc1-n1cnc(Cn2nc(-c3ccc(Cl)cc3)n(C[C@H](O)C(F)(F)F)c2=O)n1)c1ccncn1 [Example 143]
0.019 | 13.4 | 0.255 | CC(C)CC(=O)Nc1ncccc1-n1cnc(Cn2nc(-c3ccc(Cl)cc3)n(C[C@H](O)C(F)(F)F)c2=O)n1 [Example 148]
0.0124 | 153.2 | 1.9 | CSCC(=O)Nc1ncccc1-n1cnc(Cn2nc(-c3ccc(Cl)cc3)n(C[C@H](O)C(F)(F)F)c2=O)n1 [Example 149]
0.00675 | 325.9 | 2.2 | CC1(C(=O)Nc2ncccc2-n2cnc(Cn3nc(-c4ccc(Cl)cc4)n(C[C@H](O)C(F)(F)F)c3=O)n2)CC1 [Example 154]
0.00355 | 859.2 | 3.05 | O=C(Nc1ncccc1-n1cnc(Cn2nc(-c3ccc(Cl)cc3)n(C[C@H](O)C(F)(F)F)c2=O)n1)c1ccncc1 [Example 157]
0.0106 | 360.2 | 3.8 | CC(C)(C)CC(=O)Nc1ncccc1-n1cnc(Cn2nc(-c3ccc(Cl)cc3)n(C[C@H](O)C(F)(F)F)c2=O)n1 [Example 158]
0.0265 | 18.9 | 0.5 | Cc1cc(C(=O)Nc2ncccc2-n2cnc(Cn3nc(-c4ccc(Cl)cc4)n(C[C@H](O)C(F)(F)F)c3=O)n2)no1 [Example 161]
0.028 | 46.4 | 1.3 | O=C(Nc1ncccc1-n1cnc(Cn2nc(-c3ccc(Cl)cc3)n(C[C@H](O)C(F)(F)F)c2=O)n1)c1ccno1 [Example 163]
0.0193 | 64.7 | 1.25 | O=C(Nc1ncccc1-n1cnc(Cn2nc(-c3ccc(Cl)cc3)n(C[C@H](O)C(F)(F)F)c2=O)n1)OCC(F)(F)F [Example 167, 2,2,2-Trifluoroethyl {3-[3-({3-(4-chlorophenyl)-5-oxo-4-[(2S)-3,3,3-trifluoro-2-hydroxypropyl]-4,5-dihydro-1H-1,2,4-triazol-1-yl}methyl)-1H-1,2,4-triazol-1-yl]pyridin-2-yl}carbamate]
0.0285 | 54.1 | 1.54 | O=C(NCC(F)(F)F)c1ccccc1-n1cnc(Cn2nc(-c3ccc(Cl)cc3)n(C[C@@H](O)C(F)(F)F)c2=O)n1 [Example 168, 2-[3-({3-(4-Chlorophenyl)-5-oxo-4-[(2R)-3,3,3-trifluoro-2-hydroxypropyl]-4,5-dihydro-1H-1,2,4-triazol-1-yl}methyl)-1H-1,2,4-triazol-1-yl]-N-(2,2,2-trifluoroethyl)benzamide]
0.00236 | 118.5 | 0.28 | CNC(=O)c1ccccc1-n1cnc(Cn2nc(-c3ccc(Cl)cc3)n(C[C@H](O)C(F)(F)F)c2=O)n1 [Example 169, 2-[3-({3-(4-Chlorophenyl)-5-oxo-4-[(2S)-3,3,3-trifluoro-2-hydroxypropyl]-4,5-dihydro-1H-1,2,4-triazol-1-yl}methyl)-1H-1,2,4-triazol-1-yl]-N-methylbenzamide]
0.00325 |  | 2.12 | O=C(c1ccccc1-n1cnc(Cn2nc(-c3ccc(Cl)cc3)n(C[C@H](O)C(F)(F)F)c2=O)n1)N1CCOCC1 [Example 172, 5-(4-Chlorophenyl)-2-({1-[2-(morpholin-4-ylcarbonyl)phenyl]-1H-1,2,4-triazol-3-yl}methyl)-4-[(2S)-3,3,3-trifluoro-2-hydroxypropyl]-2,4-dihydro-3H-1,2,4-triazol-3-one]
0.00428 | 608.2 | 2.61 | CC(C)(N)CNC(=O)c1ccccc1-n1cnc(Cn2nc(-c3ccc(Cl)cc3)n(C[C@H](O)C(F)(F)F)c2=O)n1 [Example 173, N-(2-Amino-2-methylpropyl)-2-[3-({3-(4-chlorophenyl)-5-oxo-4-[(2S)-3,3,3-trifluoro-2-hydroxypropyl]-4,5-dihydro-1H-1,2,4-triazol-1-yl}methyl)-1H-1,2,4-triazol-1-yl]benzamide]
0.00501 | 51.4 | 0.258 | O=C(NCC(F)(F)F)c1ccccc1-n1cnc(Cn2nc(-c3ccc(Cl)cc3)n(C[C@H](O)C(F)(F)F)c2=O)n1 [Example 174, 2-[3-({3-(4-Chlorophenyl)-5-oxo-4-[(2S)-3,3,3-trifluoro-2-hydroxypropyl]-4,5-dihydro-1H-1,2,4-triazol-1-yl}methyl)-1H-1,2,4-triazol-1-yl]-N-(2,2,2-trifluoroethyl)benzamide]
